Experiments:
Kynurenine = experiment: In-vivo inhibition of blood kynurenine levels in healthy mice; set-up: species or system mouse; conditions: two hours
Method: The compounds of the present invention reduce the amount of Kynurenine in healthy mouse blood.
Briefly, mice were treated with either a suspension of one of the compounds of the present invention in 0.5% hydroxypropyl methylcellulose (HPMC) K4M/0.25% Tween 20 at different doses, or with a vehicle control (0.5% HPMC K4M/0.25% Tween 20), by the oral route by gavage (dosing volume 5 mL/kg, 10 mice per group). After two hours, blood was harvested, plasma was prepared and the amount of Kynurenine present was determined by LC-MS-MS (HPLC column Unison UK-Phenyl, 75×4.6, 3 μm, flow rate 0.8 mL/min, 4 minutes gradient from water+0.2% acetic acid to methanol+0.1% formic acid, retention time 2.7 min; API4000™ MS-MS system from AB Sciex, ESI+ mode, parent ion 209.2, daughter ion 94.1).

PancO2 tumors = experiment: In vivo efficacy in PancO2 pancreatic cancer syngeneic model; set-up: species or system C57/B16 mice; conditions: PancO2, 100 mg/kg BID oral
Method: In vivo efficacy studies of the Compounds of the present invention were performed on PancO2 syngeneic tumor model of C57/B16 mice implanted subcutaneously. Five millions PancO2 pancreas cancer cells were implanted subcutaneously to 7 weeks old C57/B16 mice (day 0). Animals were randomized based on tumor size when tumor average reached 60 mm^3 (between day 10 and 12) into different treatment cohorts. The Compound was administered orally twice per day (approximately at 9 am and 5 pm) starting the day of randomization. The Compound was suspended into Methocel vehicle and sonicated before oral administration to animals using gavage needles. Treatment was administered daily until the end of the study. All experimental animals were monitored for body weight changes weekly. Tumor volume was measured weekly using a caliper device and calculated with the following formula: Tumor volume=0.5×(length×width^2). Studies were terminated before tumor volumes reached 2000 mm. TGI (% tumor growth inhibition) was determined as
Treatment was administered daily until the end of the study. Tumor volume was measured weekly using a caliper device and calculated with the following formula: Tumor volume=0.5×(length×width^2). Mice were considered as dead when tumor size reached 400 mm^3. […] SEM refers to standard error of measurement.

hIDO1 [1] = biological target: T1, hIDO1 (Homo sapiens (Human), UniProt P14902); experiment: Cellular assay for IDO activity determination: hIDO1 P815 cells; type: cell-based; conditions: P815 cells overexpressing hIDO1, 24 hours
T1 sequence (P14902 whole entry): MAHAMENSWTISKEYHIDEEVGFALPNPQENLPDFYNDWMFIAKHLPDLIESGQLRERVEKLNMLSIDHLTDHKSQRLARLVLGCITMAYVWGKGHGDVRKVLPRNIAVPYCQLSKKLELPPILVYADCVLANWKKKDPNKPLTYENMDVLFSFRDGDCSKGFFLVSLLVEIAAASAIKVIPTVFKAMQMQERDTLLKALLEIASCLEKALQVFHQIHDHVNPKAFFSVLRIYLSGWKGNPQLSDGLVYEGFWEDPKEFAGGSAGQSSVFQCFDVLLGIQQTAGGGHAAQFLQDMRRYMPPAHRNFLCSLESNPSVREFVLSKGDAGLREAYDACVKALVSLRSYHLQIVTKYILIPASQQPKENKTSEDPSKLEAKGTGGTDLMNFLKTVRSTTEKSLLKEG
Method: To determine IDO1 activity, the cells were incubated 24 hours at 37° C. at 5% CO2 in IMDM (Invitrogen) supplemented with 2% FBS and 2% penicillin/streptomycin in the presence of the compounds of the present invention, at different concentrations.
The plates were then centrifuged 5 min at 1000 rpm, and 100 μL of the supernatant were collected in a conical plate, 30 uL of TCA 30% were added and a further centrifugated at 3000×g for 10 minutes. 100 μL of the supernatant were collected in a flat bottomed plate and 100 μL of 2% (w/v) 4-(dimethylamino)-benzaldehyde in acetic acid and incubated for 5 min at room temperature. […] A standard curve was made with pure kynurenine.

hIDO1 [2] = biological target: T1, hIDO1; experiment: Assay for IDO1 enzymatic activity determination; type: biochemical; conditions: human recombinant IDO1 enzyme, L-Trp 100 μM
Method: To measure enzymatic activity of human IDO1, the reaction mixture contained (final concentrations) potassium phosphate buffer (50 mM, pH 6.5), ascorbic acid (10 mM), methylene blue (5 μM) and human recombinant IDO1 enzyme (prepared as described in Rohrig et al. J Med Chem, 2012, 55, 5270-5290; final concentration 5 μg/mL) without or with the compounds of the present invention at the indicated concentrations (total volume 112.5 μL). The reaction was initiated by the addition of 37.5 μL of L-Trp (final concentration 100 μM) at room temperature. The reaction was conducted at room temperature during 15 minutes and stopped by the addition of 30 μL of 30% (w/v) trichloroacetic acid.
To convert N-formylkynurenine into kynurenine, the reaction mixture was incubated at 65° C. for 30 min. Then 120 μL of 2.5% (w/v) 4-(dimethylamino)-benzaldehyde in acetic acid were added and the mixture incubated for 5 min at room temperature. Kynurenine concentrations were determined by measuring the absorbance at 480 nm. A standard curve was made with pure kynurenine. The IDO1 activity was measured as described above using ten serial concentrations of the compounds of the present invention. Data were fitted using the Prism software (GraphPad Software, Inc.).

hIDO1 [3] = biological target: T1, hIDO1; experiment: Cellular assay for IDO1 activity determination: HeLa cells; type: cell-based; conditions: HeLa cells stimulated with IFNγ
Method: The assay was performed in 96-well flat bottom plates seeded with the human cervical cancer HeLa cell line with stimulation with IFN.
To adhere HeLa cells (concentration of 5×10^3 cells/well) were incubated overnight at 37° C. at 5% CO2 in EMEM (Lonza) supplemented with 10% FBS, 2% penicillin/streptomycin and 2 mM Ultraglutamin, in a final volume of 200 μL.
To stimulate the expression of IDO1, cells were then incubated two days at 37° C. at 5% CO2 in EMEM (Lonza) supplemented with 2% FBS, 2% penicillin/streptomycin and 2 mM Ultraglutamine and 100 ng/mL IFNγ (R&D).
To determine IDO1 activity, medium was removed then the cells were incubated one day at 37° C. at 5% CO2 in EMEM (Lonza) supplemented with 2% FBS and 2% penicillin/streptomycin in the presence of the compounds of the present invention, at different concentrations. Then 100 μL of the supernatant were collected in a conical plate, 30 uL of TCA 30% were added and a centrifugation was made at 3000×g for 10 minutes. 100 μL of the supernatant were collected in a flat bottom plate and 100 μL of 2% (w/v) 4-(dimethylamino)-benzaldehyde in acetic acid and incubated for 5 min at room temperature. […] A standard curve was made with pure kynurenine.

IC50 (hIDO1 [2]) [nM] | SMILES | other results
 | O=C1C[C@H](c2c[nH]c3ccc(F)cc23)C(=O)N1 [Compound 2, (−)-(R)-3-(5-fluoro-1H-indol-3-yl)pyrrolidine-2,5-dione] | Kynurenine concentration in plasma (average ± standard error of the mean) (Kynurenine; 10 mg/kg oral): 122 ± 3.5 ng/mL; inhibition of circulating Kynurenine (Kynurenine; 10 mg/kg oral): 39%; Kynurenine concentration in plasma (average ± standard error of the mean) (Kynurenine; 30 mg/kg oral): 91.0 ± 4.4 ng/mL; inhibition of circulating Kynurenine (Kynurenine; 30 mg/kg oral): 55%; Kynurenine concentration in plasma (average ± standard error of the mean) (Kynurenine; 100 mg/kg oral): 64.0 ± 3.8 ng/mL; inhibition of circulating Kynurenine (Kynurenine; 100 mg/kg oral): 68%; Mean tumor volume +/− SEM on day 55 (PancO2 tumors): 586.6 +/− 48.4 mm^3; TGI +/− SEM (Tumor growth inhibition) (PancO2 tumors; day 55): 16.8% +/− 8.2
3000 | O=C1CC(c2c[nH]c3ccccc23)C(=O)N1 (stereo not drawn) [Compound 3, 3-(1H-indol-3-yl)pyrrolidine-2,5-dione] | IC50 (hIDO1 [1]): 920 nM
1800 | O=C1C[C@H](c2c[nH]c3ccccc23)C(=O)N1 [Compound 4, (−)-(R)-3-(1H-indol-3-yl)pyrrolidine-2,5-dione] | IC50 (hIDO1 [1]): 240 nM
> 50000 | O=C1C[C@@H](c2c[nH]c3ccccc23)C(=O)N1 [Compound 4a, (+)-(S)-3-(1H-indol-3-yl)pyrrolidine-2,5-dione] | IC50 (hIDO1 [1]): 3300 nM
2100 | O=C1CC(c2c[nH]c3ccc(Cl)cc23)C(=O)N1 (stereo not drawn) [Compound 5, 3-(5-chloro-1H-indol-3-yl)pyrrolidine-2,5-dione] | IC50 (hIDO1 [1]): 590 nM
2200 | O=C1C[C@H](c2c[nH]c3ccc(Cl)cc23)C(=O)N1 [Compound 6, (−)-(R)-3-(5-chloro-1H-indol-3-yl)pyrrolidine-2,5-dione] | IC50 (hIDO1 [3]): 3400 nM
> 50000 | O=C1C[C@@H](c2c[nH]c3ccc(Cl)cc23)C(=O)N1 [Compound 6a, (+)-(S)-3-(5-chloro-1H-indol-3-yl)pyrrolidine-2,5-dione] | 
490 | O=C1CC(c2c[nH]c3cc(Cl)c(F)cc23)C(=O)N1 (stereo not drawn) [Compound 7, 3-(6-chloro-5-fluoro-1H-indol-3-yl)pyrrolidine-2,5-dione] | 
 | O=C1C[C@H](c2c[nH]c3cc(Cl)c(F)cc23)C(=O)N1 [Compound 8, (R)-3-(6-chloro-5-fluoro-1H-indol-3-yl)pyrrolidine-2,5-dione] | IC50 (hIDO1 [3]): 3600 nM
290 | O=C1CC(c2c[nH]c3cc(Br)c(F)cc23)C(=O)N1 (stereo not drawn) [Compound 9, 3-(6-bromo-5-fluoro-1H-indol-3-yl)pyrrolidine-2,5-dione] | IC50 (hIDO1 [3]): 7000 nM
620 | O=C1C[C@H](c2c[nH]c3cc(Br)c(F)cc23)C(=O)N1 [Compound 10, (R)-3-(6-bromo-5-fluoro-1H-indol-3-yl)pyrrolidine-2,5-dione] | 
8000 | O=C1C[C@@H](c2c[nH]c3cc(Br)c(F)cc23)C(=O)N1 [Compound 10a, (S)-3-(6-bromo-5-fluoro-1H-indol-3-yl)pyrrolidine-2,5-dione] | 
370 | O=C1CC(c2c[nH]c3ccc(Br)cc23)C(=O)N1 (stereo not drawn) [Compound 11, 3-(5-bromo-1H-indol-3-yl)pyrrolidine-2,5-dione] | IC50 (hIDO1 [3]): 5900 nM
53000 | Cc1ccc2[nH]cc(C3CC(=O)NC3=O)c2c1 (stereo not drawn) [Compound 12, 3-(5-methyl-1H-indol-3-yl)pyrrolidine-2,5-dione] | 
53000 | COc1ccc2[nH]cc(C3CC(=O)NC3=O)c2c1 (stereo not drawn) [Compound 13, 3-(5-methoxy-1H-indol-3-yl)pyrrolidine-2,5-dione] | 
12000 | N#Cc1ccc2[nH]cc(C3CC(=O)NC3=O)c2c1 (stereo not drawn) [Compound 14, 3-(2,5-dioxopyrrolidin-3-yl)-1H-indole-5-carbonitrile] | 
1800 | O=C1CC(c2c[nH]c3cc(F)c(F)cc23)C(=O)N1 (stereo not drawn) [Compound 15, 3-(5,6-difluoro-1H-indol-3-yl)pyrrolidine-2,5-dione] | IC50 (hIDO1 [1]): 260 nM
46000 | Cc1cc2[nH]cc(C3CC(=O)NC3=O)c2cc1F (stereo not drawn) [Compound 16, 3-(5-fluoro-6-methyl-1H-indol-3-yl)pyrrolidine-2,5-dione] | 
3400 | O=C1CC(c2c[nH]c3cc(F)ccc23)C(=O)N1 (stereo not drawn) [Compound 17, 3-(6-fluoro-1H-indol-3-yl)pyrrolidine-2,5-dione] | 
2100 | O=C1CC(c2c[nH]c3cc(Cl)ccc23)C(=O)N1 (stereo not drawn) [Compound 18, 3-(6-chloro-1H-indol-3-yl)pyrrolidine-2,5-dione] | IC50 (hIDO1 [1]): 500 nM
420 | O=C1CC(c2c[nH]c3cc(Br)ccc23)C(=O)N1 (stereo not drawn) [Compound 19, 3-(6-bromo-1H-indol-3-yl)pyrrolidine-2,5-dione] | 
54000 | Cc1ccc2c(C3CC(=O)NC3=O)c[nH]c2c1 (stereo not drawn) [Compound 20, 3-(6-methyl-1H-indol-3-yl)pyrrolidine-2,5-dione] | 
1700 | N#Cc1ccc2c(C3CC(=O)NC3=O)c[nH]c2c1 (stereo not drawn) [Compound 22, 3-(2,5-dioxopyrrolidin-3-yl)-1H-indole-6-carbonitrile] | 
18000 | O=C1CC(c2cccc3ccccc23)C(=O)N1 (stereo not drawn) [Compound 23, 3-(naphthalen-1-yl)pyrrolidine-2,5-dione] | 
1700 | O=C1CC(c2cccc3cc(F)ccc23)C(=O)N1 (stereo not drawn) [Compound 24, 3-(6-fluoronaphthalen-1-yl)pyrrolidine-2,5-dione] | 
4600 | O=C1CC(c2cccc3ccc(F)cc23)C(=O)N1 (stereo not drawn) [Compound 25, 3-(7-fluoronaphthalen-1-yl)pyrrolidine-2,5-dione] | 

Source: patent US9603836B2, “Pyrrolidine-2, 5-dione derivatives, pharmaceutical compositions and methods for use as IDO1 inhibitors” (ITEOS THERAPEUTICS, priority 2014, dated 2017)
